Measurements taken from patent US20210353579A1, “HIGH PENETRATION COMPOSITIONS AND USES THEREOF” (Techfields Pharma Co., Ltd., priority 2006, published 2021).
In brackets after ≈: the same amount, converted by molar mass.

Tests used:
[1] = Solubility in water / aqueous solubility of HPPs and parent drugs; settings: water
[2] = Plasma levels after transdermal administration to hairless mice; format: in vivo; settings: for t, time to peak plasma level after parent compound: parent compound administered (time when taken orally); for Peak plasma concentration after parent compound: parent compound administered, hairless mice
Method: Tested compounds (20% solution or suspension in 1 mL isopropanol) are administered transdermally to the skin of intact hairless mice. The plasma levels of the parent compounds are determined by HPLC.

in vivo = settings: rat
Method: The acute toxicity of the prodrug compounds and parent compounds are measured by LD50 of rat.

rats = experiment: Antipyretic activity, E. coli suspension as pyrogen; format: in vivo; settings: in °C (unit assumed)
Method: Rats are administered with sterilized E. coli suspension as a pyrogen. Each group of rats are administered with a prodrug compounds or parent compounds at a dosage specified below. The prodrug compounds are administered either orally or transdermally. The parent compounds are administered orally.

mice = experiment: Analgesic activity, acetic acid writhing; format: in vivo; settings: 30 min before acetic acid; for inhibition at 50 mg/kg / inhibition at 100 mg/kg: Mus musculus, po, read-out: % (rate of writhing inhibition)
Method: The prodrug compounds are administered either transdermally or orally. The parent compounds are administered orally. The number of writhing that occurred when mice are administered the acetic acid solution are counted, and the rate of inhibition based on the control group which was not pretreated with any test compounds is calculated. […] The A group is the control group.

human skin tissue = settings: human, 20 %, pH 7.4
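For LD50 in this document: acute toxicity in rats expressed as LD50, determined for both prodrugs and their parent compounds.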

SMILES | solubility [1] [µg/mL] | t, time to peak plasma level after parent compound [2] [h] | Peak plasma concentration after parent compound [2] [mg/L] | LD50 (in vivo) [mg/kg] | In vitro penetration rate (apparent flux), parent compounds (human skin tissue) [μg/cm^2/h] | other results
CC(=O)Oc1ccccc1C(=O)O [Aspirin, acetylsalicylic acid, reference compound] | 10 (≈ 55.5 µM) | ~2 | 0.1 | 1500 | <1 | body temperature, t = 0 min (rats; 100 mg/kg orally): 37.22 ± 0.05; body temperature, t = 90 min (rats; 100 mg/kg orally): 36.80 ± 0.05; body temperature, t = 180 min (rats; 100 mg/kg orally): 36.85 ± 0.05; body temperature, t = 270 min (rats; 100 mg/kg orally): 36.81 ± 0.05; body temperature, t = 0 min (rats; 150 mg/kg orally): 37.30 ± 0.06; body temperature, t = 90 min (rats; 150 mg/kg orally): 36.50 ± 0.05; body temperature, t = 180 min (rats; 150 mg/kg orally): 36.59 ± 0.05; body temperature, t = 270 min (rats; 150 mg/kg orally): 36.55 ± 0.05; No. of Writhing (mice; 50 mg/kg orally): 18.2; No. of Writhing (mice; 100 mg/kg orally): 13.2; inhibition at 50 mg/kg (mice; 50 mg/kg orally): 45%; inhibition at 100 mg/kg (mice; 100 mg/kg orally): 60%
O=C(O)c1cc(-c2ccc(F)cc2F)ccc1O [Diflunisal, 5-(2,4-difluorophenyl) salicylic acid, reference compound] | 50 (≈ 200 µM) | 1 to 2 | 0.2 | 500 | <1 | body temperature, t = 0 min (rats; 100 mg/kg orally): 37.25 ± 0.06; body temperature, t = 90 min (rats; 100 mg/kg orally): 36.81 ± 0.05; body temperature, t = 180 min (rats; 100 mg/kg orally): 36.82 ± 0.08; body temperature, t = 270 min (rats; 100 mg/kg orally): 36.78 ± 0.07; body temperature, t = 0 min (rats; 150 mg/kg orally): 37.35 ± 0.09; body temperature, t = 90 min (rats; 150 mg/kg orally): 36.61 ± 0.07; body temperature, t = 180 min (rats; 150 mg/kg orally): 36.56 ± 0.06; body temperature, t = 270 min (rats; 150 mg/kg orally): 36.57 ± 0.05; No. of Writhing (mice; 50 mg/kg orally): 18.1; No. of Writhing (mice; 100 mg/kg orally): 13.2; inhibition at 50 mg/kg (mice; 50 mg/kg orally): 48%; inhibition at 100 mg/kg (mice; 100 mg/kg orally): 62%
CCc1cccc2c3c([nH]c12)C(CC)(CC(=O)O)OCC3 (stereo not drawn) [Etodolac, etodolac] | 100 (≈ 348 µM) | 1 to 2 | 0.1 | 460 | 10 | 
O=C(O)Cc1ccccc1Oc1ccc(Cl)cc1Cl [Fenclofenac, fenclofenac] | 100 (≈ 337 µM) | 1 to 2 | 0.1 | 2280 | 10 | 
O=C(O)C(Cl)c1ccc(C2CCCCC2)c(Cl)c1 (stereo not drawn) [Fenclorac, fenclorac] | 200 (≈ 696 µM) | 2 to 4 | 10 | 430 | 40 | 
CC(C(=O)O)c1cccc(Oc2ccccc2)c1 (stereo not drawn) [Fenoprofen, 2-(3-phenoxyphenyl) propionic acid, reference compound] | 100 (≈ 413 µM) | 1 to 2 | 1 | 800 | <1 | body temperature, t = 0 min (rats; 50 mg/kg orally): 37.22 ± 0.07; body temperature, t = 90 min (rats; 50 mg/kg orally): 36.82 ± 0.06; body temperature, t = 180 min (rats; 50 mg/kg orally): 36.80 ± 0.05; body temperature, t = 270 min (rats; 50 mg/kg orally): 36.77 ± 0.08; No. of Writhing (mice; 50 mg/kg orally): 13.2; inhibition at 50 mg/kg (mice; 50 mg/kg orally): 62%
O=C(O)c1ccccc1Nc1cccc(C(F)(F)F)c1 [Flufenamic acid, flufenamic acid] | < 100 | 2 to 4 | 0.1 | 720 | 10 | 
COc1ccc2c(c1)c(CC(=O)O)c(C)n2C(=O)c1ccc(Cl)cc1 [Indomethacin, indomethacin] | 100 (≈ 279 µM) | 1 to 2 | 0.1 | 13 | 10 | 
CC(C(=O)O)c1ccc(N2Cc3ccccc3C2=O)cc1 (stereo not drawn) [Indoprofen, indoprofen] | 100 (≈ 355 µM) | 2 to 4 | 10 | 700 | 30 | 
Cc1cccc(Nc2ccccc2C(=O)O)c1C [Mefenamic acid, mefenamic acid] | < 100 | 2 to 4 | 0.1 | 600 | 10 | 
O=C(O)c1cccnc1Nc1cccc(C(F)(F)F)c1 [Niflumic acid, niflumic acid] | < 100 | 2 to 4 | 0.1 | 650 | 10 | 
CN1C(C(=O)Nc2ccccn2)=C(O)c2ccccc2S1(=O)=O [Piroxicam, piroxicam] | < 100 | 2 to 4 | 0.1 | 360 | <1 | 
CC(C(=O)O)c1ccc2c(c1)Cc1cccnc1O2 (stereo not drawn) [Pranoprofen, pranoprofen] | 200 (≈ 783 µM) | 2 to 4 | 10 | 450 | 30 | 
Cc1ccc(C(=O)c2ccc(CC(=O)O)n2C)cc1 [Tolmetin, tolmetin] | 200 (≈ 777 µM) | 1 to 2 | 0.1 | 350 | 10 | 
Cc1cc(CC(=O)O)n(C)c1C(=O)c1ccc(Cl)cc1 [Zomepirac, zomepirac] | 200 (≈ 686 µM) | 1 to 2 | 0.1 | 27 | 10 | 
